Measurements as given in patent US20110028455A1, “Indole-substituted 3-cyanopyridines As Kinase Inhibitors” (Wyeth LLC, priority 2007, published 2011).

Experiments:
[1] = molecular target: T1, human PKCθ full length enzyme (Homo sapiens, UniProt Q04759); experiment: PKCθ IMAP Assay; format: biochemical; conditions: PKCθ 1 nM; ATP 6 μM; peptide 100 nM; DMSO 5%; 25 minutes at room temperature; FP readout; read-out: PKC-Theta Mean IC50
T1 construct: human PKCθ full length enzyme (Panvera Cat# P2996); purchased Panvera P2996
T1 sequence (Q04759 whole entry): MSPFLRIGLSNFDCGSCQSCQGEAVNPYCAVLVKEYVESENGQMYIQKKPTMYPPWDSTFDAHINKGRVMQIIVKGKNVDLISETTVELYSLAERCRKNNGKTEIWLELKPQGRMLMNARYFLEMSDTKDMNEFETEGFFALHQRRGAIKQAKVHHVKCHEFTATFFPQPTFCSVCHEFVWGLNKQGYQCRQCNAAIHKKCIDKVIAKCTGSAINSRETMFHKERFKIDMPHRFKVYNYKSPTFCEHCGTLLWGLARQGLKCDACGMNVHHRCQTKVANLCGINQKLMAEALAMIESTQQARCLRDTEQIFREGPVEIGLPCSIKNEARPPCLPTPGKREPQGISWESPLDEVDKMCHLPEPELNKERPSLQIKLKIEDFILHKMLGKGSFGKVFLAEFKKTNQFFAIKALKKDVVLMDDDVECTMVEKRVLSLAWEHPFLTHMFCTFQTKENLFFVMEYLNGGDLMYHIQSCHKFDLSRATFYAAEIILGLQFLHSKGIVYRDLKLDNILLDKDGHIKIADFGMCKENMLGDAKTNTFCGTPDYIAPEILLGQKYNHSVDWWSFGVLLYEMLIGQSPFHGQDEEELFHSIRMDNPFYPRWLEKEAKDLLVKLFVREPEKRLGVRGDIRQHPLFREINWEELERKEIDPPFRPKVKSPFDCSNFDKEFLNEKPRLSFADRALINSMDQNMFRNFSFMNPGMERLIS
Procedure: The materials used include the following: human PKCθ full length enzyme (Panvera Cat# P2996); substrate peptide: 5FAM-RFARKGSLRQKNV-OH (Molecular Devices, RP7032); ATP (Sigma Cat # A2383); DTT (Pierce, 20291); 5× kinase reaction buffer (Molecular Devices, R7209); 5× binding buffer A (Molecular Devices, R7282), 5× binding buffer B (Molecular Devices, R7209); IMAP Beads (Molecular Devices, R7284); and 384-well plates (Corning Costar, 3710).
The reaction buffer was prepared by diluting the 5× stock reaction buffer and adding DTT to obtain a concentration of 3.0 mM. The binding buffer was prepared by diluting the 5× binding buffer A. A master mix solution was prepared using a 90% dilution of the reaction buffer containing 2×ATP (12 uM) and 2× peptide (200 nm). Compounds were diluted in DMSO to 20× of the maximum concentration for the IC50 measurement. 27 μl of the master mix solution for each IC50 curve was added to the first column in a 384-well plate and 3 μl of 20× compound in DMSO was added to each well.
The final concentration of compound was 2× and 10% DMSO. DMSO was added to the rest of the master mix to increase the concentration to 10%. 10 μl of the master mix containing 10% DMSO was added to the rest of the wells on the plate except the 2nd column. 20 μl was transferred from the first column to the 2nd column. The compounds were serially diluted in 2:1 ratio starting from the 2nd column. A 2×(2 nM) PKCθ solution was made in the reaction buffer. 10 μl of the PKCθ solution was added to every well to achieve these final concentrations: PKCθ-1 nM; ATP-6 μM; peptide-100 nM; DMSO-5%. Samples were incubated for 25 minutes at room temperature. The binding reagent was prepared by diluting the beads in 1× binding buffer to 800:1. 50 μl of the binding reagent was added to every well and incubated for 20 minutes. FP was measured using Envision2100 (PerkinElmer Life Sciences). Wells with no ATP and wells with no enzyme were used as controls.

[2] = Metabolic stability in rat liver microsomes; format: in vitro ADME; conditions: 30 minutes incubation, remaining compound by HPLC, 6-Me compounds of the invention, read-out: Rat Microsome Stability of 6-Me cyanopyridine Compounds (approximate half life)
Procedure: In order to probe the metabolic stability of the compounds of the invention, a series of compounds were selected for stability testing in rat liver microsomes. A DMSO solution of each compound was incubated for 30 minutes in the presence of rat liver homogenate. The percentage of remaining compound was assessed by HPLC. An approximate half life was calculated from the percentage of remaining compound. Table II, below, illustrates a comparison of the in vitro microsomal half life of the selected compounds verses a series of related compounds lacking the C-6 alkyl group. […] It is generally accepted in the industry that improved in vitro metabolic stability frequently translates into improved in vivo metabolic stability. Improved metabolic stability may translate to increased in vivo exposure levels.

Row | SMILES | melting point [°C] | IC50 [1] [nM] | half-life [2] [min]
1 | COc1ccc(-c2c(C)ncc(C#N)c2Nc2cccc3[nH]ccc23)cc1OC [Example 8, 5-(3,4-dimethoxyphenyl)-4-(1H-indol-4-ylamino)-6-methylnicotinonitrile] | 182 to 183 | 151 | 
2 | COc1ccc(-c2c(C)ncc(C#N)c2Nc2ccc3[nH]ccc3c2C)cc1OC [Example 9, 5-(3,4-dimethoxyphenyl)-6-methyl-4-[(4-methyl-1H-indol-5-yl)amino]nicotinonitrile] | 202 to 203 | 67 | 
3 | Cc1ncc(C#N)c(Nc2cccc3[nH]ccc23)c1-c1cc2ccccc2o1 [Example 10, 5-(1-benzofuran-2-yl)-4-(1H-indol-4-ylamino)-6-methylnicotinonitrile] | 192 to 193 | 113 | 
4 | Cc1ncc(C#N)c(Nc2ccc3[nH]ccc3c2C)c1-c1cc2ccccc2o1 [Example 11, 5-(1-benzofuran-2-yl)-6-methyl-4-[(4-methyl-1H-indol-5-yl)amino]nicotinonitrile] | 154 to 155 | 13 | 
5 | Cc1ncc(C#N)c(Nc2ccc3[nH]ccc3c2C)c1-c1ccc(OCCCl)cc1 [Example 12, 5-[4-(2-chloroethoxy)phenyl]-6-methyl-4-[(4-methyl-1H-indol-5-yl)amino]nicotinonitrile] | 200 to 201 | 30 | 
6 | Cc1ncc(C#N)c(Nc2cccc3[nH]ccc23)c1-c1ccc(OCCCl)cc1 [Example 13, 5-[4-(2-chloroethoxy)phenyl]-4-(1H-indol-4-ylamino)-6-methylnicotinonitrile] | 185 to 186 | 150 | 
7 | Cc1ncc(C#N)c(Nc2ccc3[nH]ccc3c2C)c1-c1ccc(OCCN2CCN(C)CC2)cc1 [Example 14, 6-methyl-4-[(4-methyl-1H-indol-5-yl)amino]-5-{4-[2-(4-methylpiperazin-1-yl)ethoxy]phenyl}nicotinonitrile] | 183 to 184 | 31 | > 30
8 | Cc1ncc(C#N)c(Nc2ccc3[nH]ccc3c2C)c1-c1cc2cc(C=O)ccc2o1 [Example 15, 5-(5-formyl-1-benzofuran-2-yl)-6-methyl-4-[(4-methyl-1H-indol-5-yl)amino]nicotinonitrile] | 168 to 169 | 12 | 
9 | Cc1ncc(C#N)c(Nc2ccc3[nH]ccc3c2C)c1-c1cc2cc(CN3CCN(C)CC3)ccc2o1 [Example 16, 6-methyl-4-[(4-methyl-1H-indol-5-yl)amino]-5-{5-[(4-methylpiperazin-1-yl)methyl]-1-benzofuran-2-yl}nicotinonitrile] | 218 to 220 | 2.7 | 
10 | Cc1ncc(C#N)c(Nc2ccc3[nH]ccc3c2C)c1-c1ccc(OCCN2CCOCC2)cc1 [Example 30, 6-methyl-4-[(4-methyl-1H-indol-5-yl)amino]-5-[4-(2-morpholin-4-ylethoxy)phenyl]nicotinonitrile] |  | 124 | 17
11 | CCN1CCN(CCOc2ccc(-c3c(C)ncc(C#N)c3Nc3ccc4[nH]ccc4c3C)cc2)CC1 [Example 33, 5-{4-[2-(4-ethylpiperazin-1-yl)ethoxy]phenyl}-6-methyl-4-[(4-methyl-1H-indol-5-yl)amino]nicotinonitrile] |  | 44 | > 30
12 | Cc1ncc(C#N)c(Nc2ccc3[nH]ccc3c2C)c1-c1ccc(OCCN2CCN(CCO)CC2)cc1 [Example 35, 5-(4-{2-[4-(2-hydroxyethyl)piperazin-1-yl]ethoxy}phenyl)-6-methyl-4-[(4-methyl-1H-indol-5-yl)amino]nicotinonitrile] |  | 44 | > 30
13 | Cc1ncc(C#N)c(Nc2ccc3[nH]ccc3c2C)c1-c1ccc(OCCN2CCN(CCN(C)C)CC2)cc1 [Example 36, 5-[4-(2-{4-[2-(dimethylamino)ethyl]piperazin-1-yl}ethoxy)phenyl]-6-methyl-4-[(4-methyl-1H-indol-5-yl)amino]nicotinonitrile] |  | 33 | > 30
14 | Cc1ncc(C#N)c(Nc2ccc3[nH]ccc3c2C)c1-c1ccc(OCCNCCCn2ccnc2)cc1 [Example 38, 5-[4-(2-{[3-(1H-imidazol-1-yl)propyl]amino}ethoxy)phenyl]-6-methyl-4-[(4-methyl-1H-indol-5-yl)amino]nicotinonitrile] |  | 14 | > 30
15 | Cc1ncc(C#N)c(Nc2ccc3[nH]ccc3c2C)c1-c1ccc(OCCNCc2ccccc2)cc1 [Example 39, 5-{4-[2-(benzylamino)ethoxy]phenyl}-6-methyl-4-[(4-methyl-1H-indol-5-yl)amino]nicotinonitrile] |  | 73 | 14
16 | Cc1ncc(C#N)c(Nc2ccc3[nH]ccc3c2C)c1-c1ccc(OCCNCc2ccccn2)cc1 [Example 40, 6-methyl-4-[(4-methyl-1H-indol-5-yl)amino]-5-(4-{2-[(pyridin-2-ylmethyl)amino]ethoxy}phenyl)nicotinonitrile] |  | 29 | 13
